Laboratory results taken from patent US20100152240A1, “PYRROLINE-2-ONE DERIVATIVES AGAINST CELL RELEASING TUMOR NECROSIS FACTOR, PREPARATION METHODS AND USES THEREOF” (priority 2006, published 2010).

System: TNFα released by PBMCs stimulated by LPS
Assay: Inhibition of the release of TNFα in peripheral blood mononuclear cells (PBMCs) stimulated by lipopolysaccharide (LPS), ELISA
Assay type: cell-based, human
Settings: LPS 0.1 μg/mL, 20 hours incubation; for Inhibition Degree: compound concentration 3.0 μM; for EC50: concentration giving 50% TNFα inhibition
Method: Pharmacological Research: Effects on the releasing of TNFα in peripheral blood mononuclear cells (PBMCs) stimulated by lipopolysaccharide (LPS).
Cytokine TNFα released by PBMCs in the peripheral blood stimulated by lipid polysaccharide (LPS) in vitro was studied.
PBMCs were collected from blood of at least three volunteers pretreated with heparin by a gradient separation method, and washed three times with a 1640 culture medium (10% calf serum, 2 mM L-glutamine, […] mercaptoethanol, 50 μg/mL streptomycin, and 50 U/mL penicillin). The obtained PBMCs were then placed into a 24-well cell culture plate and the concentration was adjusted to 1×10^6 cells/mL with 1640 culture medium. The compounds to be tested were dissolved in dimethylsulfoxide to obtain a solution having a required concentration. The solution was added to the above-mentioned cell culture medium and cultured in an incubator (5% CO2, 90% humidity) for 1 hour. Then, LPS (Sigma) was added until the concentration reached 0.1 μg/mL (except for the control).
After 20 hours incubation, the content of TNFα in the supernatant of the PBMC culture medium was assayed by ELISA kit (America Genzyme Co) using standard method. The TNFα inhibition rate was calculated by measured value of the control well (not treated) and the measured value of the test wells (treated with the test compound). The concentration of compounds giving a 50% TNFα inhibition (IC50 value) was calculated using nonlinear regression analysis. Each concentration was determined twice and an average value was practicable.

Row | Structure (SMILES) | Inhibition Degree | also measured
1 | O=C1CCC(N2Cc3cscc3C2=O)C(=O)N1 (stereo not shown) [Example 9, 3-(4-oxo-4H-thiophene[3,4-c]pyrrol-5(6H)-yl)piperidine-2,6-dione] | 32% | 
2 | CN1C(=O)CCC(N2Cc3cscc3C2=O)C1=O (stereo not shown) [Example 10, 1-methyl-3-(4-oxo-4H-thiophene[3,4-c]pyrrol-5(6H)-yl)piperidine-2,6-dione] | 28% | 
3 | CCCN1C(=O)CCC(N2Cc3cscc3C2=O)C1=O (stereo not shown) [Example 11, 3-(4-oxo-4H-thiophene[3,4-c]pyrrol-5(6H)-yl)-1-propylpiperidine-2,6-dione] | 22% | 
4 | CC1(N2Cc3cscc3C2=O)CCC(=O)NC1=O (stereo not shown) [Example 16, 3-methyl-3-(4-oxo-4H-thiophene[3,4-c]pyrrole-5(6H)-yl)piperidine-2,6-dione] | 38% | 
5 | O=C1CCC(N2Cc3c(csc3[N+](=O)[O-])C2=O)C(=O)N1 (stereo not shown) [Example 17, 3-(1-nitro-4-oxo-4H-thiophene[3,4-c]pyrrole-5(6H)-yl)piperidine-2,6-dione] | 19% | 
6 | Nc1scc2c1CN(C1CCC(=O)NC1=O)C2=O (stereo not shown) [Example 18, 3-(1-amino-4-oxo-4H-thiophene[3,4-c]pyrrole-5(6H)-yl)piperidine-2,6-dione] | 94% | EC50: 60 nM
7 | CC1(N2Cc3c(csc3N)C2=O)CCC(=O)NC1=O (stereo not shown) [Example 20, 3-methyl-3-(1-amino-4-oxo-4H-thiophene[3,4-c]pyrrole-5(6H)-yl)piperidine-2,6-dione] | 76% | EC50: 180 nM
8 | O=C1CCC(N2Cc3ccsc3C2=O)C(=O)N1 (stereo not shown) [Example 33, 3-(6-oxo-4H-thiophene[3,2-c]pyrrole-5(6H)-yl)piperidine-2,6-dione] | 47% | 
9 | O=C1CCC(N2C(=O)c3cscc3C2=O)CN1 (stereo not shown) [Example 34, 5-(6-oxo-piperidine-3-yl)-5H-thiophene[3,4-c]pyrrole-4,6-dione] | 18% | 
10 | O=C1CCC(N2C(=O)c3ccccc3C2=O)C(=O)N1 (stereo not shown) [Thalidomide, reference compound] |  | inhibition at 100 µM (Homo sapiens, PBMC, compound concentration 100 μM, read-out: Inhibition Degree): 22%; EC50 (Homo sapiens, PBMC): 183000 nM
